Assay results: patent US20150126551A1, “USE OF A […] HALIDE DERIVATIVE IN THE TREATMENT OF NEURODEGENERATIVE DISEASES” (Orphazyme ApS, priority 2003, published 2015)

Tests used:
[1] = test system: mSOD1^(G93A) transgenic mice
From the text: Transgenic mSOD1^(G93A) mice of both sexes were used in this study.

[2] = test system: mSOD1^(G93A) transgenic mice; conditions: mouse, in vivo

Question: How did the “half relaxation time of EDL (mean +/- S.E.M.)” value ([1]; 10 mg/kg i.p. daily from 35 days of age, 120 days of age, n=10, p=0.030 vs untreated (43.3 ms), wild-type 25.8 ms) turn out when `O=C(O)CC(O)(CC(=O)O)C(=O)O.[O-][n+]1cccc(C(Cl)=NOC[C@H](O)CN2CCCCC2)c1` [compound A, (+)-R-N-[2-hydroxy-3-(1-piperidinyl)-propoxy]-pyridine-1-oxide-3-carboximidoyl chloride citrate] was run?
Answer: 32.2 ms

Question: And the “motor units survived in EDL muscles (mean +/- S.E.M.)” value ([1]; 10 mg/kg i.p. daily from 35 days of age, assessed at 120 days of age, n=10, p=0.003 vs untreated (8.3), wild-type 28)?
Answer: 14.3 +/−0.6

Question: And the “fatigue index (FI) of EDL (mean +/- S.E.M.)” value ([1]; 10 mg/kg i.p. daily, 120 days of age, stimulation 40 Hz, 3 minutes, n=10, p<0.05 vs untreated (0.255), wild-type 0.848)?
Answer: 0.416+/−0.07

Question: And the “average lifespan (mean +/- S.E.M.)” value ([1]; treated mSOD1^(G93A) mice, n=7, untreated 125 days, endpoint: inability to right itself and loss of approximately 20% body weight)?
Answer: 153 ± 2.6 days

Question: What about the “decline in body weight” value ([1]; treated vs untreated mSOD1^(G93A) mice) of the same molecule?
Answer: delayed

Question: What about the increase in lifespan ([1]; treated vs untreated mSOD1^(G93A) mice, p<0.001) of the same molecule?
Answer: over 22%

Question: And the “motoneurons surviving in the sciatic motor pool (mean +/- S.E.M.)” value [2]?
Answer: 412+/−28
